Where a name gives a salt, the structure may show the parent alone.
Experiments:
human H3 receptor = target: T1, human H3 receptor (Homo sapiens, UniProt Q9Y5N1); experiment: Human H3 radioligand binding ([3H]-N-alpha-methylhistamine, CHO cell membranes); conditions: membranes of CHO cells stably expressing the human H3 receptor; [3H]-N-alpha-methylhistamine approx. 1 nM
T1 construct: expressed in transfected cells
Protocol: Methods: CHO cells stably expressing the human H3 receptor (GenBank: NM_007232) were harvested and cell pellets were frozen (—80° C.). Cell pellets were resuspended in 5 mM Tris-HCl, pH 7.5 with […] and a cocktail of protease inhibitors (Complete Protease Inhibitior Tablets, Roche Diagnostics). Cells were disrupted using a polytron cell homogenizer and the suspension was centrifuged at 1000×g for 10 minutes at 4° C. The pellet was discarded and the supernatant centrifuged at 40,000×g for 30 min at 4° C. This membrane pellet was washed in membrane buffer containing 50 mM Tris-HCl, pH 7.5 with 0.6 mM EDTA, 5 mM MgCl2 and protease inhibitors, recentrifuged as above and the final pellet resuspended in membrane buffer plus 250 mM sucrose and frozen at −80° C.
Radioligand Binding. Membranes were resuspended in 50 mM Tris HCl (pH 7.4), 5 mM MgCl2, 0.1% BSA. The membrane suspensions (10 μg protein per well) were incubated in a 96 well microtiter plate with [^3H]-N-alpha-methylhistamine (approximately 1 nM final concentration), test compounds at various concentrations (0.01 nM-30 μM) and scintillation proximity beads (Perkin Elmer, FlashBlueGPCR Scintillating Beads) in a final volume of 80 μl for 4 hours at room temperature, protected from light. Non-specific binding was determined in the presence of 10 μM clobenpropit. Radioligand bound to receptor, and therefore in proximity to the scintillation beads, was measured using a MicroBeta scintillation counter.

T1 sequence (Q9Y5N1 whole entry): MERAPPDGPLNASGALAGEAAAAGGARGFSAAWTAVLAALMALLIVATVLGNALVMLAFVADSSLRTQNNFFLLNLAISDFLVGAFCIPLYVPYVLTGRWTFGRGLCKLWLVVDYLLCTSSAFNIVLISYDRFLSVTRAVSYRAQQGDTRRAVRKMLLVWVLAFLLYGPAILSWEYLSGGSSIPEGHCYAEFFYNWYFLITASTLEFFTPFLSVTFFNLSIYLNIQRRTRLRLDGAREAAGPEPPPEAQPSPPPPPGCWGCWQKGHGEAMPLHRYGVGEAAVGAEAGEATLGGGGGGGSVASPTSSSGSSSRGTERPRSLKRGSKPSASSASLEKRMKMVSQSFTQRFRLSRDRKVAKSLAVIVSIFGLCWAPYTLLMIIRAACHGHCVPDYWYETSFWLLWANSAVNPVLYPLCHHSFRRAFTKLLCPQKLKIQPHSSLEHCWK

| Compound | Ki (human H3 receptor) | melting point |
| --- | --- | --- |
| CCNc1ccc(-c2ccc(OCCCN3CCC[C@H]3C)cc2)nn1 [Example 28, Ethyl-(6-{4-[3-((R)-2-methyl-pyrrolidin-1-yl)-propoxy]-phenyl}pyridazin-3-yl)amine] | < 50 nM |  |
| C[C@@H]1CCCN1CCCOc1ccc(-c2ccc(N)nn2)cc1 [Example 7, 6-{4-[3-((R)-2-Methyl-pyrrolidin-1-yl)-propoxy]-phenyl}pyridazin-3-ylamine] | < 50 nM | 121 to 122 °C |
| COc1ccc(-c2ccc(OCCCN3CCCCC3)cc2)nn1 [Example 23] | < 50 nM | 116 °C |
| c1ccc(COc2ccc(-c3ccc(OCCCN4CCCCC4)cc3)nn2)cc1 [Example 20, 3-Benzyloxy-6-[4-(3-piperidin-1-yl-propoxy)phenyl]pyridazine] | < 50 nM |  |
| C[C@@H]1CCCN1CCCOc1ccc(-c2ccc(-c3ccccc3)nn2)cc1 [Example 4, 3-{4-[3-((R)-2-Methyl-pyrrolidin-1-yl)-propoxy]-phenyl}-6-phenylpyridazine] | < 50 nM | 158 to 160 °C |
| COc1nnc(-c2ccc(OCCCN3CCC[C@H]3C)cc2)c2c1CCC2 [Example 39, 1-Methoxy-4-{4-[3-((R)-2-methylpyrrolidin-1-yl)-propoxy]-phenyl}6,7-dihydro-5H-cyclopenta[d]pyridazine] | < 50 nM | 109 °C |
| Clc1nnc(-c2ccc(OCCCN3CCCCC3)cc2)c2c1CCC2 [Example 15, 1-Chloro-4-[4-(3-piperidin-1-yl-propoxy)-phenyl]-6,7-dihydro-5H-cyclopenta[d]pyridazine] | < 50 nM | 120 °C |
| C[C@H](COc1ccc(-c2ccc(Cl)nn2)cc1)CN1CCC[C@H]1C [Example 43, 3-Chloro-6-{4-[(S)-2-methyl-3-((R)-2-methylpyrrolidin-1-yl)propoxy]-phenyl}pyridazine] | < 50 nM |  |
| COc1cc(-c2ccc(Cl)nn2)ccc1OCCCN1CCCCC1 [Example 11, 3-Chloro-6-[3-methoxy-4-(3-piperidin-1-yl-propoxy)phenyl]pyridazine] | > 101 nM | 120 °C |
| c1ccc(Oc2ccc(-c3ccc(OCCCN4CCCCC4)cc3)nn2)cc1 [Example 25, 3-Phenoxy-6-[4-(3-piperidin-1-yl-propoxy)phenyl]pyridazine] | < 50 nM | 139 °C |
| C[C@@H]1CCCN1CCCOc1ccc(-c2nnc(Cl)c3c2CCC3)cc1 [Example 17, 1-Chloro-4-{4-[3-((R)-2-metyl-pyrrolidin-1-yl)-propoxy]-phenyl}-6,7-dihydro-5H-cyclopenta[d]pyridazine] | < 50 nM | 65 °C |
| C[C@@H]1CCCN1CCCOc1ccc(-c2nnc(SCc3ccccc3)c3c2CCC3)cc1 [Example 42, 1-Benzylsulfanyl-4-{4-[3-((R)-2-methyl-pyrrolidin-1-yl)propoxy]-phenyl}-6,7-dihydro-5H-cyclopenta[d]pyridazine] | < 50 nM | 122 °C |
| C[C@@H]1CCCN1CCCOc1ccc(-c2ccc(OCc3ccc(C(F)(F)F)cc3)nn2)cc1 [Example 27, 3-{4-[3-((R)-2-Methyl-pyrrolidin-1-yl)-propoxy]-phenyl}-6-(4-trifluoromethyl-benzyloxy)pyridazine] | < 50 nM | 160 °C |
| Cc1ccc(-c2ccc(OCCCN3CCC[C@H]3C)cc2)nn1 [Example 3, 3-Methyl-6-{4-[3-((R)-2-methyl-pyrrolidin-1-yl)-propoxy]-phenyl}pyridazine] | < 50 nM |  |
| C[C@@H]1CCCN1CCCOc1ccc(-c2ccc(SCc3ccccc3)nn2)cc1 [Example 33, 3-Benzylsulfanyl-6-{4-[3-((R)-2-methyl-pyrrolidin-1-yl)-propoxy]phenyl}pyridazine] | < 50 nM | 104 °C |
| CSc1nnc(-c2ccc(OCCCN3CCC[C@H]3C)cc2)c2c1CCC2 [Example 32, 1-{4-[3-((R)-2-Methyl-pyrrolodin-1-yl)-propoxy]-phenyl}-4-methylsulfanyl-6,7-dihydro-5H-cyclopenta[d]pyridazine] | < 50 nM |  |
| CC(C)Oc1ccc(-c2ccc(OCCCN3CCC[C@H]3C)cc2)nn1 [Example 24] | < 50 nM | 75 °C |
| CSc1ccc(-c2ccc(OCCCN3CCC[C@H]3C)cc2)nn1 [Example 30] | < 50 nM | 101 °C |
| c1ccc(CSc2ccc(-c3ccc(OCCCN4CCCCC4)cc3)nn2)cc1 [Example 34, 3-Benzylsulfanyl-6-[4-(3-piperidin-1-yl-propoxy)-phenyl]pyridazine] | < 50 nM | 144 °C |
| C[C@@H]1CCCN1CCCOc1ccc(-c2cccnn2)cc1 [Example 45, 3-{4-[3-((R)-2-Methyl-pyrrolidin-1-yl)-propoxy]-phenyl}-pyridazine] | < 50 nM |  |
| C[C@@H]1CCCN1CCCOc1ccc(-c2ccc([S+]([O-])Cc3ccccc3)nn2)cc1 (stereo partly drawn) [Example 35, 3-{4-[3-((R)-2-Methylpyrrolidin-1-yl)propoxy]phenyl}-6-phenylmethanesulfinyl-pyridazine] | < 50 nM |  |
| C[C@@H]1CCCN1CCCOc1ccc(-c2ccc(N3CCC(O)CC3)nn2)cc1 [Example 9, 1-(6-{4-[3-((R)-2-Methylpyrrolidin-1-yl)-propoxy]phenyl}pyridazin-3-yl)piperidin-4-ol] | < 50 nM | 138 to 141 °C |
| C[C@@H]1CCCN1CCCOc1ccc(-c2ccc(S(=O)(=O)Cc3ccccc3)nn2)cc1 [Example 37, 3-{4-[3-((R)-2-Methyl-pyrrolidin-1-yl)-propoxy]phenyl}-6-phenylmethanesulfonyl-pyridazine] | < 50 nM |  |
| C[C@@H]1CCCN1CCCOc1ccc(-c2cccnn2)cc1 (as salt: HCl) [Example 45, 3-{4-[3-((R)-2-Methyl-pyrrolidin-1-yl)-propoxy]-phenyl}-pyridazine] |  | 198 to 201 °C |

Continued, values first:

| Ki (human H3 receptor) | melting point | Compound |
| --- | --- | --- |
| < 50 nM | 134 to 136 °C | C[C@@H]1CCCN1CCCOc1ccc(-c2ccc(Cl)nn2)cc1C#N [Example 13, 5-(6-Chloro-pyridazin-3-yl)-2-[3-((R)-2-methyl-pyrrolidin-1-yl)-propoxy]benzonitrile] |
| > 101 nM | 122 °C | COc1cc(-c2ccc(Cl)nn2)ccc1OCCCN1CCC[C@H]1C [Example 10, 3-Chloro-6-{3-methoxy-4-[3-((R)-2-methyl-pyrrolidin-1-yl)propoxy}phenyl}pyridazine] |
| < 50 nM | 126 to 129 °C | CNc1ccc(-c2ccc(OCCCN3CCC[C@H]3C)cc2)nn1 [Example 8, Methyl-(6-{4-[3-((R)-2-methyl-pyrrolidin-1-yl)-propoxy]phenyl}pyridazin-3-yl)amine] |
| < 50 nM | 139.5 to 141 °C | C[C@@H]1CCCN1CCCOc1ccc(-c2ccc(NCc3ccccc3)nn2)cc1 [Example 29, Benzyl-(6-{4-[3-((R)-2-methyl-pyrrolidin-1-yl)-propoxy]-phenyl}-pyridazin-3-yl)amine] |
| < 50 nM | 121 °C | COc1ccc(-c2ccc(OCCCN3CCC[C@H]3C)cc2)nn1 [Example 22] |
| > 101 nM | 140 to 142 °C | N#Cc1cc(-c2ccc(Cl)nn2)ccc1OCCCN1CCCCC1 [Example 14, 5-(6-Chloro-pyridazin-3-yl)-2-(3-piperidin-1-yl-propoxy)benzonitrile] |
| < 50 nM |  | C[C@@H]1CCCN1CCCOc1ccc(-c2ccc(N3CCOCC3)nn2)cc1 [Example 6, 4-(6-{4-[3-((R)-2-Methylpyrrolidin-1-yl)-propoxy]phenyl}pyridazin-3-yl)morpholine] |
| < 50 nM | 108 °C | C[C@@H]1CCCN1CCCOc1ccc(-c2ccc(-c3cccs3)nn2)cc1 [Example 16, 3-{4-[3-((R)-2-Methyl-pyrrolidin-1-yl)-propoxy]phenyl}-6-thiophen-2-yl-pyridazine] |
| < 50 nM |  | C[C@@H]1CCCN1CCCOc1ccc(-c2ccc(Cl)nn2)cc1 [Example 1, 3-Chloro-6-{4-[3-((R)-2-methyl-pyrrolidin-1-yl)propoxy]-phenyl}pyridazine] |
| < 50 nM | 134 °C | O=S(=O)(Cc1ccccc1)c1ccc(-c2ccc(OCCCN3CCCCC3)cc2)nn1 [Example 38, 3-Phenylmethanesulfonyl-6-[4-(3-piperidin-1-yl-propoxy)phenyl]pyridazine] |
| < 50 nM | 118 °C | C[C@@H]1CCCN1CCCOc1ccc(-c2ccc(OCc3ccc(F)cc3)nn2)cc1 [Example 26, 3-(4-Fluoro-benzyloxy)-6-{4-[3-((R)-2methyl-pyrrolidin-1-yl)-propoxy]phenyl}pyridazine] |
| < 50 nM | 186 °C | [O-][S+](Cc1ccccc1)c1ccc(-c2ccc(OCCCN3CCCCC3)cc2)nn1 (stereo not drawn) [Example 36, 3-Phenylmethanesulfinyl-6-[4-(3-piperidin-1-yl-propoxy)phenyl]pyridazine] |
| > 101 nM | 108 to 110 °C | CC1CCCCN1C[C@H](C)COc1ccc(-c2ccc(Cl)nn2)cc1 (stereo partly drawn) [Example 44, 3-Chloro-6-{4-[(S)-2-methyl-3-(2-methylpiperidin-1-yl)propoxy]-phenyl}pyridazine] |

From US8076331B2, “Substituted pyridazine derivatives” (Cephalon, Inc., priority 2008, dated 2011)
